The test system of the first experiment is 454973-116-R2-J3-PDC spheroids, viability, % test/control. Kind of experiment: Anticancer human tumor 454973-116-R2-J3-PDC patient-derived pancreatic carcinoma cell line growth inhibition [GQUAD]. The following applies: curve of first compound; second compound 0.0316 µM; spheroids with HUVEC and MSC. In a few lines:
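Viability of tumor cells grown as complex spheroids with endothelial and stromal cells, exposed to drug combinations. Top concentration at or near clinical Cmax (else 10 microM), diluted in half-log increments.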
For the molecule `COc1cc(C2c3cc4c(cc3C(OC3OC5COC(C)OC5C(O)C3O)C3COC(=O)C23)OCO4)cc(OC)c1O` (configuration not stated) + CN(C)c1ccc(Nc2c3ccc(NC(=O)CCN4CCCC4)cc3nc3cc(NC(=O)CCN4CCCC4)ccc23)cc1, the concentration for half-maximal inhibition (IC50) turned out to be 1240 nM.

As for `COc1cccc2c1C(=O)c1c(O)c3c(c(O)c1C2=O)CC(O)(C(=O)CO)CC3OC1CC(N)C(O)C(C)O1` (configuration not stated) + CN(C)c1ccc(Nc2c3ccc(NC(=O)CCN4CCCC4)cc3nc3cc(NC(=O)CCN4CCCC4)ccc23)cc1, the IC50 was found to be 236 nM.

As to `Nc1ccn(C2OC(CO)C(O)C2(F)F)c(=O)n1` (configuration not stated) + CN(C)c1ccc(Nc2c3ccc(NC(=O)CCN4CCCC4)cc3nc3cc(NC(=O)CCN4CCCC4)ccc23)cc1, the IC50 was under 31.6 nM.

For `O=c1[nH]cc(F)c(=O)[nH]1` + CN(C)c1ccc(Nc2c3ccc(NC(=O)CCN4CCCC4)cc3nc3cc(NC(=O)CCN4CCCC4)ccc23)cc1, the half-inhibitory concentration (IC50) was 2120 nM.

Still in this experiment, the particulars now being: curve of first compound; second compound 0.1 µM; spheroids with HUVEC and MSC.
As for `COc1cc(C2c3cc4c(cc3C(OC3OC5COC(C)OC5C(O)C3O)C3COC(=O)C23)OCO4)cc(OC)c1O` (configuration not stated) + CN(C)c1ccc(Nc2c3ccc(NC(=O)CCN4CCCC4)cc3nc3cc(NC(=O)CCN4CCCC4)ccc23)cc1, the IC50 was determined as 1270 nM.

With `COc1cccc2c1C(=O)c1c(O)c3c(c(O)c1C2=O)CC(O)(C(=O)CO)CC3OC1CC(N)C(O)C(C)O1` (configuration not stated) + CN(C)c1ccc(Nc2c3ccc(NC(=O)CCN4CCCC4)cc3nc3cc(NC(=O)CCN4CCCC4)ccc23)cc1, the half-inhibitory concentration (IC50) is 242 nM.

As to `Nc1ccn(C2OC(CO)C(O)C2(F)F)c(=O)n1` (configuration not stated) + CN(C)c1ccc(Nc2c3ccc(NC(=O)CCN4CCCC4)cc3nc3cc(NC(=O)CCN4CCCC4)ccc23)cc1, the 50% inhibitory concentration (IC50) was under 31.6 nM.

In the case of `O=c1[nH]cc(F)c(=O)[nH]1` + CN(C)c1ccc(Nc2c3ccc(NC(=O)CCN4CCCC4)cc3nc3cc(NC(=O)CCN4CCCC4)ccc23)cc1, the IC50 came to 2060 nM.

Still in this experiment, the particulars now being: curve of first compound; second compound 0.316 µM; spheroids with HUVEC and MSC.
Consider `COc1cc(C2c3cc4c(cc3C(OC3OC5COC(C)OC5C(O)C3O)C3COC(=O)C23)OCO4)cc(OC)c1O` (configuration not stated) + CN(C)c1ccc(Nc2c3ccc(NC(=O)CCN4CCCC4)cc3nc3cc(NC(=O)CCN4CCCC4)ccc23)cc1, for which the IC50 is 1090 nM.

On to `COc1cccc2c1C(=O)c1c(O)c3c(c(O)c1C2=O)CC(O)(C(=O)CO)CC3OC1CC(N)C(O)C(C)O1` (configuration not stated) + CN(C)c1ccc(Nc2c3ccc(NC(=O)CCN4CCCC4)cc3nc3cc(NC(=O)CCN4CCCC4)ccc23)cc1, for which the half-inhibitory concentration (IC50) came to 255 nM.

Take `Nc1ccn(C2OC(CO)C(O)C2(F)F)c(=O)n1` (configuration not stated) + CN(C)c1ccc(Nc2c3ccc(NC(=O)CCN4CCCC4)cc3nc3cc(NC(=O)CCN4CCCC4)ccc23)cc1: the IC50 is under 31.6 nM.

On to `O=c1[nH]cc(F)c(=O)[nH]1` + CN(C)c1ccc(Nc2c3ccc(NC(=O)CCN4CCCC4)cc3nc3cc(NC(=O)CCN4CCCC4)ccc23)cc1, for which the half-maximal inhibitory concentration (IC50) came out at 2250 nM.

Still in this experiment, the particulars now being: curve of first compound; second compound 1 µM; spheroids with HUVEC and MSC.
As to `COc1cc(C2c3cc4c(cc3C(OC3OC5COC(C)OC5C(O)C3O)C3COC(=O)C23)OCO4)cc(OC)c1O` (configuration not stated) + CN(C)c1ccc(Nc2c3ccc(NC(=O)CCN4CCCC4)cc3nc3cc(NC(=O)CCN4CCCC4)ccc23)cc1, the IC50 came to 790 nM.

In the case of `COc1cccc2c1C(=O)c1c(O)c3c(c(O)c1C2=O)CC(O)(C(=O)CO)CC3OC1CC(N)C(O)C(C)O1` (configuration not stated) + CN(C)c1ccc(Nc2c3ccc(NC(=O)CCN4CCCC4)cc3nc3cc(NC(=O)CCN4CCCC4)ccc23)cc1, the IC50 was determined as 253 nM.

As to `Nc1ccn(C2OC(CO)C(O)C2(F)F)c(=O)n1` (configuration not stated) + CN(C)c1ccc(Nc2c3ccc(NC(=O)CCN4CCCC4)cc3nc3cc(NC(=O)CCN4CCCC4)ccc23)cc1, the 50% inhibitory concentration (IC50) was under 31.6 nM.

With `O=c1[nH]cc(F)c(=O)[nH]1` + CN(C)c1ccc(Nc2c3ccc(NC(=O)CCN4CCCC4)cc3nc3cc(NC(=O)CCN4CCCC4)ccc23)cc1, the IC50 stood at 1460 nM.

The same experiment, now with this note: curve of first compound; second compound 3.16 µM; spheroids with HUVEC and MSC.
On to `COc1cc(C2c3cc4c(cc3C(OC3OC5COC(C)OC5C(O)C3O)C3COC(=O)C23)OCO4)cc(OC)c1O` (configuration not stated) + CN(C)c1ccc(Nc2c3ccc(NC(=O)CCN4CCCC4)cc3nc3cc(NC(=O)CCN4CCCC4)ccc23)cc1, for which the IC50 was determined as 749 nM.

Turning to `COc1cccc2c1C(=O)c1c(O)c3c(c(O)c1C2=O)CC(O)(C(=O)CO)CC3OC1CC(N)C(O)C(C)O1` (configuration not stated) + CN(C)c1ccc(Nc2c3ccc(NC(=O)CCN4CCCC4)cc3nc3cc(NC(=O)CCN4CCCC4)ccc23)cc1, the half-maximal inhibitory concentration (IC50) was found to be 405 nM.

For `Nc1ccn(C2OC(CO)C(O)C2(F)F)c(=O)n1` (configuration not stated) + CN(C)c1ccc(Nc2c3ccc(NC(=O)CCN4CCCC4)cc3nc3cc(NC(=O)CCN4CCCC4)ccc23)cc1, the half-inhibitory concentration (IC50) is under 31.6 nM.

With `O=c1[nH]cc(F)c(=O)[nH]1` + CN(C)c1ccc(Nc2c3ccc(NC(=O)CCN4CCCC4)cc3nc3cc(NC(=O)CCN4CCCC4)ccc23)cc1, the half-maximal inhibitory concentration (IC50) stood at 1580 nM.

Still in this experiment, the particulars now being: curve of first compound; second compound 10 µM; spheroids with HUVEC and MSC.
Take `COc1cc(C2c3cc4c(cc3C(OC3OC5COC(C)OC5C(O)C3O)C3COC(=O)C23)OCO4)cc(OC)c1O` (configuration not stated) + CN(C)c1ccc(Nc2c3ccc(NC(=O)CCN4CCCC4)cc3nc3cc(NC(=O)CCN4CCCC4)ccc23)cc1: the IC50 worked out at 821 nM.

With `COc1cccc2c1C(=O)c1c(O)c3c(c(O)c1C2=O)CC(O)(C(=O)CO)CC3OC1CC(N)C(O)C(C)O1` (configuration not stated) + CN(C)c1ccc(Nc2c3ccc(NC(=O)CCN4CCCC4)cc3nc3cc(NC(=O)CCN4CCCC4)ccc23)cc1, the IC50 was 410 nM.

Turning to `Nc1ccn(C2OC(CO)C(O)C2(F)F)c(=O)n1` (configuration not stated) + CN(C)c1ccc(Nc2c3ccc(NC(=O)CCN4CCCC4)cc3nc3cc(NC(=O)CCN4CCCC4)ccc23)cc1, the IC50 is under 31.6 nM.

On to `O=c1[nH]cc(F)c(=O)[nH]1` + CN(C)c1ccc(Nc2c3ccc(NC(=O)CCN4CCCC4)cc3nc3cc(NC(=O)CCN4CCCC4)ccc23)cc1, for which the half-maximal inhibitory concentration (IC50) is 1920 nM.

The experiment is the same for the next values; noted with them: second compound 0.0316 µM; first compound 0.0316 µM; stronger effect = lower value; spheroids with HUVEC and MSC.
For `COc1cc(C2c3cc4c(cc3C(OC3OC5COC(C)OC5C(O)C3O)C3COC(=O)C23)OCO4)cc(OC)c1O` (configuration not stated) + CN(C)c1ccc(Nc2c3ccc(NC(=O)CCN4CCCC4)cc3nc3cc(NC(=O)CCN4CCCC4)ccc23)cc1, the viability, T/C is 102%.

With `COc1cccc2c1C(=O)c1c(O)c3c(c(O)c1C2=O)CC(O)(C(=O)CO)CC3OC1CC(N)C(O)C(C)O1` (configuration not stated) + CN(C)c1ccc(Nc2c3ccc(NC(=O)CCN4CCCC4)cc3nc3cc(NC(=O)CCN4CCCC4)ccc23)cc1, the viability, T/C was 104%.

For the molecule `Nc1ccn(C2OC(CO)C(O)C2(F)F)c(=O)n1` (configuration not stated) + CN(C)c1ccc(Nc2c3ccc(NC(=O)CCN4CCCC4)cc3nc3cc(NC(=O)CCN4CCCC4)ccc23)cc1, the viability, T/C was 19%.

On to `O=c1[nH]cc(F)c(=O)[nH]1` + CN(C)c1ccc(Nc2c3ccc(NC(=O)CCN4CCCC4)cc3nc3cc(NC(=O)CCN4CCCC4)ccc23)cc1, for which the viability, T/C was 114%.

The experiment is the same for the next values; noted with them: second compound 0.0316 µM; first compound 0.1 µM; stronger effect = lower value; spheroids with HUVEC and MSC.
As for `COc1cc(C2c3cc4c(cc3C(OC3OC5COC(C)OC5C(O)C3O)C3COC(=O)C23)OCO4)cc(OC)c1O` (configuration not stated) + CN(C)c1ccc(Nc2c3ccc(NC(=O)CCN4CCCC4)cc3nc3cc(NC(=O)CCN4CCCC4)ccc23)cc1, the viability, T/C was 95.6%.

With `COc1cccc2c1C(=O)c1c(O)c3c(c(O)c1C2=O)CC(O)(C(=O)CO)CC3OC1CC(N)C(O)C(C)O1` (configuration not stated) + CN(C)c1ccc(Nc2c3ccc(NC(=O)CCN4CCCC4)cc3nc3cc(NC(=O)CCN4CCCC4)ccc23)cc1, the viability, T/C was 72.1%.

In the case of `Nc1ccn(C2OC(CO)C(O)C2(F)F)c(=O)n1` (configuration not stated) + CN(C)c1ccc(Nc2c3ccc(NC(=O)CCN4CCCC4)cc3nc3cc(NC(=O)CCN4CCCC4)ccc23)cc1, the viability, T/C is 13.3%.

With `O=c1[nH]cc(F)c(=O)[nH]1` + CN(C)c1ccc(Nc2c3ccc(NC(=O)CCN4CCCC4)cc3nc3cc(NC(=O)CCN4CCCC4)ccc23)cc1, the viability, T/C was 98.1%.

Staying with this experiment, now noted: second compound 0.0316 µM; first compound 0.316 µM; stronger effect = lower value; spheroids with HUVEC and MSC.
As for `COc1cc(C2c3cc4c(cc3C(OC3OC5COC(C)OC5C(O)C3O)C3COC(=O)C23)OCO4)cc(OC)c1O` (configuration not stated) + CN(C)c1ccc(Nc2c3ccc(NC(=O)CCN4CCCC4)cc3nc3cc(NC(=O)CCN4CCCC4)ccc23)cc1, the viability, T/C was 87.9%.

In the case of `COc1cccc2c1C(=O)c1c(O)c3c(c(O)c1C2=O)CC(O)(C(=O)CO)CC3OC1CC(N)C(O)C(C)O1` (configuration not stated) + CN(C)c1ccc(Nc2c3ccc(NC(=O)CCN4CCCC4)cc3nc3cc(NC(=O)CCN4CCCC4)ccc23)cc1, the viability, T/C was 33%.

Regarding `Nc1ccn(C2OC(CO)C(O)C2(F)F)c(=O)n1` (configuration not stated) + CN(C)c1ccc(Nc2c3ccc(NC(=O)CCN4CCCC4)cc3nc3cc(NC(=O)CCN4CCCC4)ccc23)cc1, the viability, T/C was 16.6%.

Consider `O=c1[nH]cc(F)c(=O)[nH]1` + CN(C)c1ccc(Nc2c3ccc(NC(=O)CCN4CCCC4)cc3nc3cc(NC(=O)CCN4CCCC4)ccc23)cc1, for which the viability, T/C is 108%.

The same experiment, now with this note: second compound 0.0316 µM; first compound 1 µM; stronger effect = lower value; spheroids with HUVEC and MSC.
As for `COc1cc(C2c3cc4c(cc3C(OC3OC5COC(C)OC5C(O)C3O)C3COC(=O)C23)OCO4)cc(OC)c1O` (configuration not stated) + CN(C)c1ccc(Nc2c3ccc(NC(=O)CCN4CCCC4)cc3nc3cc(NC(=O)CCN4CCCC4)ccc23)cc1, the viability, T/C is 55.1%.

For `COc1cccc2c1C(=O)c1c(O)c3c(c(O)c1C2=O)CC(O)(C(=O)CO)CC3OC1CC(N)C(O)C(C)O1` (configuration not stated) + CN(C)c1ccc(Nc2c3ccc(NC(=O)CCN4CCCC4)cc3nc3cc(NC(=O)CCN4CCCC4)ccc23)cc1, the viability, T/C is 33.2%.

As for `Nc1ccn(C2OC(CO)C(O)C2(F)F)c(=O)n1` (configuration not stated) + CN(C)c1ccc(Nc2c3ccc(NC(=O)CCN4CCCC4)cc3nc3cc(NC(=O)CCN4CCCC4)ccc23)cc1, the viability, T/C is 13.1%.

As for `O=c1[nH]cc(F)c(=O)[nH]1` + CN(C)c1ccc(Nc2c3ccc(NC(=O)CCN4CCCC4)cc3nc3cc(NC(=O)CCN4CCCC4)ccc23)cc1, the viability, T/C is 84.2%.

The same experiment, now with this note: second compound 0.0316 µM; first compound 3.16 µM; stronger effect = lower value; spheroids with HUVEC and MSC.
As to `COc1cc(C2c3cc4c(cc3C(OC3OC5COC(C)OC5C(O)C3O)C3COC(=O)C23)OCO4)cc(OC)c1O` (configuration not stated) + CN(C)c1ccc(Nc2c3ccc(NC(=O)CCN4CCCC4)cc3nc3cc(NC(=O)CCN4CCCC4)ccc23)cc1, the viability, T/C was 25.9%.

With `COc1cccc2c1C(=O)c1c(O)c3c(c(O)c1C2=O)CC(O)(C(=O)CO)CC3OC1CC(N)C(O)C(C)O1` (configuration not stated) + CN(C)c1ccc(Nc2c3ccc(NC(=O)CCN4CCCC4)cc3nc3cc(NC(=O)CCN4CCCC4)ccc23)cc1, the viability, T/C was 20.6%.
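Note: spheroids exposed to compounds for seven days.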
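Throughout, for viability, T/C: 100% = DMSO vehicle control viability.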
